Test results taken from the supplement of paper PMC8671470.

Legend:
Details in all cases: 72 h
BV-173 = assay: cell viability (% survival relative to DMSO control); higher = less cytotoxic
Protocol: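 8x8 drug-combination matrices (0–5000 nM; rosiglitazone and lestaurtinib 0–1000 nM) were run in BV-173 cells for 72 h with CellTiter-Glo read-out. Survival is normalised to DMSO and 10 µM bortezomib and clipped at 100%.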

[1] = system: myeloid leukemia patient primary cells Pat.6; assay: cell viability (% survival relative to DMSO control); higher = less cytotoxic
Procedure, shortened: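 Where an area under the curve appears, it was computed with the drc and PharmacoGx R packages from log-logistic fits. Those fits used four parameters. The underlying viability data came from CellTiter-Glo after 72 h, normalised to DMSO and 10 μM proteasome-inhibitor wells, with thawed, Ficoll-purified AML or CML patient mononuclear cells at 10,000 cells/well in RPMI 1640 with 10% FBS on 384-well plates pre-printed with 70 compounds at five tenfold concentrations (1–10,000 nM) in duplicate.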

[2] = system: myeloid leukemia patient primary cells Pat.5; assay: area under dose-response curve (viability, 1 nM-10 uM) (fraction (0-1)); higher = more sensitive
Protocol: (§1)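 AUC (0–1, higher = more sensitive) of the 5-point dose–response (1 nM–10 µM, 72 h, CellTiter-Glo) in primary AML/CML patient mononuclear cells. 0.030103 is the floor for inactive compounds.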

[3] = system: myeloid leukemia patient primary cells Pat.2; assay: as above
Protocol: as §1

[4] = system: myeloid leukemia patient primary cells Pat.14; assay: as above
Protocol: as §1

[5] = system: myeloid leukemia patient primary cells Pat.7; assay: as above
Protocol: as §1

[6] = system: myeloid leukemia patient primary cells Pat.3; assay: as above
Protocol: as §1

[7] = system: myeloid leukemia patient primary cells Pat.12; assay: as above
Protocol: as §1

[8] = system: myeloid leukemia patient primary cells Pat.9; assay: as above
Protocol: as §1

[9] = system: myeloid leukemia patient primary cells Pat.6; assay: as above
Protocol: as §1

[10] = system: myeloid leukemia patient primary cells Pat.13; assay: as above
Protocol: as §1

[11] = system: myeloid leukemia patient primary cells Pat.15; assay: as above
Protocol: as §1

[12] = system: myeloid leukemia patient primary cells Pat.10; assay: as above
Protocol: as §1

[13] = system: myeloid leukemia patient primary cells Pat.11; assay: as above
Protocol: as §1

[14] = system: myeloid leukemia patient primary cells Pat.8; assay: as above
Protocol: as §1

[15] = system: myeloid leukemia patient primary cells Pat.1; assay: as above
Protocol: as §1

[16] = system: myeloid leukemia patient primary cells Pat.4; assay: as above
Protocol: as §1

O=C(C1CC1)N1CC[C@@H](C=C2NNC(=O)N2c2ccc(-c3ccc4occc4c3)cc2)C1 + C[C@H](NC(=O)c1sccc1OCc1ccc(Cl)cc1)c1ccccc1 [as1949490]
cell viability [%], BV-173
Details	drug1 concentration 5 nM	drug1 concentration 10 nM	drug1 concentration 50 nM	drug1 concentration 100 nM	drug1 concentration 500 nM	drug1 concentration 1000 nM	drug1 concentration 5000 nM
drug2 concentration 5 nM	> 100	> 100	> 100	> 100	91.8	93.3	80.6
drug2 concentration 10 nM	94.1	> 100	> 100	> 100	> 100	> 100	> 100
drug2 concentration 50 nM	> 100	> 100	> 100	85	> 100	88.7	96.7
drug2 concentration 100 nM	> 100	80.2	> 100	88.5	> 100	96	84.7
drug2 concentration 500 nM	85.5	> 100	84.8	> 100	91.2	92.3	77.2
drug2 concentration 1000 nM	> 100	87.6	99.3	> 100	80.2	73.6	58.5
drug2 concentration 5000 nM	65.2	44.9	73.8	46	44.2	57.2	0

C=C(C=NNC(=N)N)NNC(=N)N [Mitoguazone]
[1]
Details	cell viability [%]
1 nM	> 100
10 nM	82
100 nM	44.5
1000 nM	1.04
10000 nM	50.8

Details	area under dose-response curve
[2]	0.715
[3]	< 0.0301
[4]	0.604
[5]	0.528
[6]	0.412
[7]	< 0.0301
[8]	0.6
[9]	0.484
[10]	< 0.0301
[11]	0.161
[12]	0.574
[13]	< 0.0301
[14]	< 0.0301
[15]	< 0.0301
[16]	0.0342

O=C(O)Cn1nnc(-c2cc(N3CCC(Oc4cc(F)ccc4Br)CC3)no2)n1 [MK-8245]
[1]
Details	cell viability [%]
1 nM	97.8
10 nM	97.2
100 nM	97.3
1000 nM	> 100
10000 nM	97

Details	area under dose-response curve
[2]	0.0448
[3]	< 0.0301
[4]	< 0.0301
[5]	< 0.0301
[6]	0.0756
[7]	< 0.0301
[8]	< 0.0301
[9]	< 0.0301
[10]	< 0.0301
[11]	< 0.0301
[12]	0.205
[13]	< 0.0301
[14]	< 0.0301
[15]	< 0.0301
[16]	< 0.0301

O=C(O)C1=CC(=C(c2ccc(O)c(C(=O)O)c2)c2ccc(O)c(C(=O)O)c2)C=CC1=O [Aurintricarboxylic acid]
[1]
Details	cell viability [%]
1 nM	99.8
10 nM	97.5
100 nM	> 100
1000 nM	> 100
10000 nM	97.7

Details	area under dose-response curve
[2]	< 0.0301
[3]	< 0.0301
[4]	< 0.0301
[5]	< 0.0301
[6]	0.0466
[7]	< 0.0301
[8]	< 0.0301
[9]	< 0.0301
[10]	< 0.0301
[11]	< 0.0301
[12]	< 0.0301
[13]	< 0.0301
[14]	< 0.0301
[15]	< 0.0301
[16]	< 0.0301

CC(C)c1onc(-c2c(Cl)cccc2Cl)c1COc1ccc(/C=C/c2cccc(C(=O)O)c2)c(Cl)c1 [GW4064] + Cn1cc(-c2ccncc2)c(-c2ccc(OCc3ccc4ccccc4n3)cc2)n1 [PF-02545920]
cell viability [%], BV-173
Details	drug1 concentration 5 nM	drug1 concentration 10 nM	drug1 concentration 50 nM	drug1 concentration 100 nM	drug1 concentration 500 nM	drug1 concentration 1000 nM	drug1 concentration 5000 nM
drug2 concentration 5 nM	> 100	> 100	> 100	90.6	> 100	> 100	> 100
drug2 concentration 10 nM	> 100	95.5	95.6	> 100	> 100	> 100	98
drug2 concentration 50 nM	> 100	88.5	> 100	> 100	> 100	80.7	74
drug2 concentration 100 nM	> 100	> 100	> 100	> 100	> 100	> 100	97
drug2 concentration 500 nM	97.3	93.2	96	> 100	> 100	> 100	> 100
drug2 concentration 1000 nM	> 100	> 100	82.7	99.2	95.5	87.3	81.7
drug2 concentration 5000 nM	90.7	90.2	79.3	96.2	92.8	78.5	> 100

Nc1nc(Cl)nc2c1ncn2[C@H]1C[C@H](O)[C@@H](CO)O1 [Cladribine]
[1]
Details	cell viability [%]
1 nM	95.1
10 nM	74.3
100 nM	19.2
1000 nM	6.84
10000 nM	6.92

Details	area under dose-response curve
[2]	0.799
[3]	0.463
[4]	0.616
[5]	0.62
[6]	0.652
[7]	0.438
[8]	0.762
[9]	0.611
[10]	0.7
[11]	0.193
[12]	0.768
[14]	0.609
[15]	< 0.0301
[16]	0.689

COC(=O)[C@]12CCC(C)(C)C[C@H]1[C@H]1C(=O)C=C3[C@@]4(C)C=C(C#N)C(=O)C(C)(C)[C@@H]4CC[C@@]3(C)[C@]1(C)CC2 [Bardoxolone methyl]
[1]
Details	cell viability [%]
1 nM	99.8
10 nM	81.4
100 nM	75
1000 nM	17.6
10000 nM	72.1

Details	area under dose-response curve
[2]	0.699
[3]	0.28
[4]	0.433
[5]	0.705
[6]	0.618
[7]	0.0322
[8]	0.813
[9]	0.345
[10]	0.397
[11]	0.207
[12]	0.589
[13]	0.111
[14]	0.328
[15]	0.183
[16]	0.158

COc1cc(/C=C/C(=O)N2CCC=CC2=O)cc(OC)c1OC [Piperlongumine]
[1]
Details	cell viability [%]
1 nM	83.2
10 nM	96.6
100 nM	86.2
1000 nM	> 100
10000 nM	2.54

Details	area under dose-response curve
[2]	0.585
[3]	0.125
[4]	0.244
[5]	0.0802
[6]	0.219
[7]	0.162
[8]	0.505
[9]	0.116
[10]	0.149
[11]	0.191
[12]	< 0.0301
[13]	0.121
[14]	0.144
[15]	0.143
[16]	0.21

O=C1c2cc([N+](=O)[O-])ccc2-n2c1nc1ccccc1c2=O [GNF-Pf-3777]
[1]
Details	cell viability [%]
1 nM	> 100
10 nM	98.8
100 nM	98.6
1000 nM	94.3
10000 nM	66.8

Details	area under dose-response curve
[2]	0.292
[3]	0.0426
[4]	0.071
[5]	0.0749
[6]	0.265
[7]	< 0.0301
[8]	0.158
[9]	0.0546
[10]	0.115
[11]	0.0672
[12]	0.27
[16]	0.14

O=C1O/C(=C/Br)CCC1c1cccc2ccccc12 (centres undefined) [Bromoenol Lactone]
[1]
Details	cell viability [%]
1 nM	91.1
10 nM	89.2
100 nM	> 100
1000 nM	86
10000 nM	33.1

Details	area under dose-response curve
[2]	0.828
[3]	0.0768
[4]	0.324
[5]	0.287
[6]	0.447
[7]	0.084
[8]	0.651
[9]	0.0918
[10]	0.0877
[11]	0.132
[12]	0.515
[13]	0.0656
[14]	0.0529
[15]	0.135
[16]	0.213
